Test [1] deals with von Hippel-Lindau disease tumor suppressor/Mitogen-activated protein kinase 14 (Homo sapiens, UniProt P40337+Q16539). The test is described as follows: Protac activity at E3 ubiquitin ligase/p38alpha in human MDA-MB-231 cells assessed as p38alpha degradation after 4 hrs by ELISA. It is filed as cell-based. On the technique in general: In an ELISA, binding on a coated surface is turned into a signal by an enzyme label.

For test [2], the target named is von Hippel-Lindau disease tumor suppressor/Mitogen-activated protein kinase 14 (Homo sapiens) (UniProt Q16539+P40337). The test is described as follows: Protac activity at E3 ubiquitin ligase/p38alpha in human MDA-MB-231 cells assessed as p38alpha degradation after 4 hrs by ELISA relative to control. It is filed as cell-based.

3 compounds from ChEMBL document CHEMBL4330178 (ACS Med Chem Lett, 2019) can be followed below.

In general, IC50 refers to the midpoint of a concentration-inhibition curve. The term Emax denotes the maximal effect, on the per cent scale that the assay sets.

von Hippel-Lindau disease tumor suppressor/Mitogen-activated protein kinase 14, sequence (Q16539 whole entry): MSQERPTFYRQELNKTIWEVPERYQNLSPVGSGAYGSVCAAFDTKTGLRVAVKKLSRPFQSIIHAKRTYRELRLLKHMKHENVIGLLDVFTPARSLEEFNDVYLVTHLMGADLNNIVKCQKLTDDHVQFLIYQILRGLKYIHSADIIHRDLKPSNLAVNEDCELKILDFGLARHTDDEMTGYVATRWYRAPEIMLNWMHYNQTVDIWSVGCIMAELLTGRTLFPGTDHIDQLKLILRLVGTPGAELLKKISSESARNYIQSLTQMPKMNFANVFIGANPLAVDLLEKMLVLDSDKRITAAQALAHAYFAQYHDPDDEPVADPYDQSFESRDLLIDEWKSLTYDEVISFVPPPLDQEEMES
von Hippel-Lindau disease tumor suppressor/Mitogen-activated protein kinase 14, sequence (P40337 whole entry): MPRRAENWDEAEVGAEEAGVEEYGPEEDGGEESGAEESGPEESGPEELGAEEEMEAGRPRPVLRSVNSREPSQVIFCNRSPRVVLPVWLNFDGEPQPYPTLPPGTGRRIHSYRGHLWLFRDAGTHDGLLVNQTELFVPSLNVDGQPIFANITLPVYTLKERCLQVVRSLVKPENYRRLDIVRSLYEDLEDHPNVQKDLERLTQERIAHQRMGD
von Hippel-Lindau disease tumor suppressor/Mitogen-activated protein kinase 14 (Homo sapiens), sequence (P40337 whole entry partner): as the sequence (P40337 whole entry) above
von Hippel-Lindau disease tumor suppressor/Mitogen-activated protein kinase 14 (Homo sapiens), sequence (Q16539 2-360 limits assumed): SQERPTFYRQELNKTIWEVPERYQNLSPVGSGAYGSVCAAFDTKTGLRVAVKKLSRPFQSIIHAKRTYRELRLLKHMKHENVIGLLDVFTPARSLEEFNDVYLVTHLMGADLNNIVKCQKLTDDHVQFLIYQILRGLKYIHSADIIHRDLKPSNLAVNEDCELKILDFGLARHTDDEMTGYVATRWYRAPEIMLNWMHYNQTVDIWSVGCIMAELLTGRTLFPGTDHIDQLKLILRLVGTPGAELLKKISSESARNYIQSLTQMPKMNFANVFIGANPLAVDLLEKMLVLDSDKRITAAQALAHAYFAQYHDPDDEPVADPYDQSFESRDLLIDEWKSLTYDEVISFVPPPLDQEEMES

Consider `COc1cc2c(Oc3ccc(NC(=O)C4(C(=O)Nc5ccc(F)cc5)CC4)cc3F)ccnc2cc1OCCOCCOCCC(=O)N[C@H](C(=O)N1C[C@H](O)C[C@H]1C(=O)NCc1ccc(-c2scnc2C)cc1)C(C)(C)C`, for which the IC50 in test [1] was determined as 40.1 nM. For the same compound, in test [2], the maximum response (Emax) was 81%.

With `COc1cc2c(Oc3ccc(NC(=O)C4(C(=O)Nc5ccc(F)cc5)CC4)cc3F)ccnc2cc1OCCCOCCOCCC(=O)N[C@H](C(=O)N1C[C@H](O)C[C@H]1C(=O)NCc1ccc(-c2scnc2C)cc1)C(C)(C)C`, the IC50 in test [1] is 18.8 nM. In addition, the maximum response (Emax) in test [2] amounted to 91%.

With `COc1cc2c(Oc3ccc(NC(=O)C4(C(=O)Nc5ccc(F)cc5)CC4)cc3F)ccnc2cc1OCCCOCCCOCCC(=O)N[C@H](C(=O)N1C[C@H](O)C[C@H]1C(=O)NCc1ccc(-c2scnc2C)cc1)C(C)(C)C`, in test [1], the IC50 turned out to be 50 nM. Also, in test [2], the Emax worked out at 95%.
